Measurements as given in patent EP0358957A1, “Fused tetrahydropyridineacetic acid derivatives, process for their preparation, and use of such compounds for the cardioprotection” (BOEHRINGER INGELHEIM KG, priority 1988, dated 1990).

Test system: isolierten Rattenherzen
Assay: Isolated rat heart, method II: coronary flow throttled by 75 %, prevention of the fall in contraction amplitude
Parameters: species or system Ratten
Conditions: Method II: coronary flow reduced by 75 %; substance added to perfusion medium during flow reduction; concentration needed to prevent the fall in contraction amplitude; read-out: Benötige Konzentrationen
Excerpt: Wird ein, längere Zeit unter ischämischen Bedingungen gehaltenes, isoliertes Herz wieder normal perfundiert, so tritt keine sofortige Normalisierung der Herzfunktion ein. Es findet sich vielmehr eine vorübergehende Periode, die durch Kontraktur und Arrhytmien gekennzeichnet ist. Diese Arrhythmiephase ist durch Veränderungen von Funktion und Struktur der Myocardzelle mit intrazellulärer Calciumüberladung bedingt (Hess u. Manson, J. Mol. Cell. Cardiol. 16, 969, 1984). Cardioprotektiv wirksame Verbindungen wie Verapamil und Diltiazem verringern die Calciumüberladung und verbessern das Kontraktionsverhalten bei Reperfusion (Watts et al, Am. J. Physiol. 238, H 909, 1980; Meno et al, Am. J. Physiol. 247, H 380, 1984), Die cardioprotektive Wirkung wird an isolierten Rattenherzen unter Ischämie und anschließender Reperfusion untersucht.
Wird der Coronarfluß isolierter Herzen um 75 % gedrosselt, so reagiert das Herz zunächst mit einer Abnahme der Kontraktionsamplitude, ein Herzstillstand tritt erst innerhalb einer Stunde ein. Cardioprotektive Substanzen, während der Periode der Flußreduzierung dem Perfusionsmedium zugesetzt, verhindern den Abfall der Kontraktionsamplitude.

SMILES	minimal effective concentration
C=CCN(C1=NCCN1)c1c(Cl)cccc1Cl [Alinidin, reference compound]	8.3 µg/mL
COc1cc2c(cc1OC)C(C(CCc1ccccc1)C(=O)NCCc1ccncc1)NCC2 (stereo not drawn) [D]	3 µg/mL
CCCCNC(=O)C(CCc1ccccc1)C1NCCc2cc(OC)c(OC)cc21 (stereo not drawn) [E]	1 µg/mL
